Each compound was assayed against T1, Rat recombinant PDE10A (rPDE10A2) (Rattus norvegicus, UniProt Q9QYJ6) (assay: In vitro assay PDE10A (SPA, 3H-cAMP)). Conditions: pIC50 corresponds to the -log IC50 expressed in mol/L; read-out: PDE10A2 pIC50 (converted).
T1 construct: made in house; host or cells: Sf9 insect cells, baculovirus
T1 sequence (Q9QYJ6 1-794): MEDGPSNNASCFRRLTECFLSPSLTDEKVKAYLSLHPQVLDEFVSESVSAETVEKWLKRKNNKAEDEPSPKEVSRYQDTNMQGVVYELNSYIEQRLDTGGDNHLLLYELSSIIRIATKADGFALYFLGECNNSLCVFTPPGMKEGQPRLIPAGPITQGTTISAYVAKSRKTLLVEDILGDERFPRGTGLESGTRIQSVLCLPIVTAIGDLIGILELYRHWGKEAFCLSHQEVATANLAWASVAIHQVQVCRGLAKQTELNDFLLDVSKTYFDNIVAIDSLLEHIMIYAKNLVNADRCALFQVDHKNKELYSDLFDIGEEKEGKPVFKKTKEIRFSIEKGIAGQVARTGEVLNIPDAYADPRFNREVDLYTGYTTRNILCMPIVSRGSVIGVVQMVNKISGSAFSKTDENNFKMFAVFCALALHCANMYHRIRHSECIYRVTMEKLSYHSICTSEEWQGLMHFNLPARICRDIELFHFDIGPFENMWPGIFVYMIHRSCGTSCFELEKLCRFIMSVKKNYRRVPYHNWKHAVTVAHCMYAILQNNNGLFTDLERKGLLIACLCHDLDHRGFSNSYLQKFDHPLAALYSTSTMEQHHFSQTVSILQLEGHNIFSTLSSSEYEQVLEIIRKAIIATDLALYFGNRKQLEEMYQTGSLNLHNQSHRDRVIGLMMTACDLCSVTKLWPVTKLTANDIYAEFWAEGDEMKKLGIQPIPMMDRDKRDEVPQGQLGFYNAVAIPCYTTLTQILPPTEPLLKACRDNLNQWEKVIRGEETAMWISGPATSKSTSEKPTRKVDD
Type: biochemical
Protocol: Rat recombinant PDE10A (rPDE10A2) was expressed in Sf9 cells using a recombinant rPDE10A baculovirus construct. Cells were harvested after 48 h of infection and the rPDE10A protein was purified by metal chelate chromatography on Ni-sepharose 6FF. Tested compounds were dissolved and diluted in 100% DMSO to a concentration 100 fold of the final concentration in the assay. Compound dilutions (0.4 μl) were added in 384 well plates to 20 μl of incubation buffer (50 mM Tris pH 7.8, 8.3 mM MgCl2, 1.7 mM EGTA). 10 μl of rPDE10A enzyme in incubation buffer was added and the reaction was started by addition of 10 μl substrate to a final concentration of 60 nM cAMP and 0.008 μCi ^3H-cAMP. The reaction was incubated for 60 min. at RT. […] After sedimentation of the beads during 30 min. the radioactivity was measured in a Perkin Elmer Topcount scintillation counter and results were expressed as cpm. For blank values the enzyme was omitted from the reaction and replaced by incubation buffer. Control values were obtained by addition of a final concentration of 1% DMSO instead of compound. The same assay principle is applied for the measurement of the affinity of the compound for other members of the PDE family with appropriate modifications in incubation buffer, substrate concentration, incubation time and stop solution.

| IC50 | SMILES |
| --- | --- |
| 871 nM | Cc1nc2c(N3CCOCC3)nccn2c1-c1ccc(CCN2CCCC2)nc1 [compound 140] |
| 135 nM | CCOCCn1cc(-c2c(C)nc3c(N4CCOCC4)nccn23)cn1 [compound 93] |
| 120 nM | Cc1nc2c(N3CCOCC3)nccn2c1-c1cnc(N2CCOCC2)nc1 [compound 85] |
| 309 nM | CC(=O)Cn1cc(-c2c(C)nc3c(N4CCOCC4)nccn23)cn1 [compound 117] |
| 537 nM | COCCn1cc(-c2c(OC)nc3c(N4CCCC4)nccn23)cn1 [compound 131] |
| 145 nM | Cc1nc2c(N3CCOCC3)nccn2c1-c1cnn(CC(=O)C2CC2)c1 [compound 98] |
| 631 nM | COCCn1cc(-c2c(OC)nc3c(N4CCOCC4)nccn23)cn1 [compound 137] |
| 100 nM | COC[C@H](C)n1cc(-c2c(C)nc3c(N4CCOCC4)nccn23)cn1 [compound 75] |
| 871 nM | Cc1nc2c(N3CCOCC3)nccn2c1-c1cc[nH]c1 [compound 43, 2-Methyl-8-morpholin-4-yl-3-(1H-pyrrol-3-yl)-imidazo[1,2-a]pyrazine] |
| 56.2 nM | COC(Cn1cc(-c2c(C)nc3c(N4CCOCC4)nccn23)cn1)C(C)C (single isomer, unassigned) [compound 54] |
| 933 nM | COCCn1cc(-c2c(C)nc3c(N4CCOCC4)nc(CCC(F)(F)F)cn23)cn1 [compound 39, 3-[1-(2-Methoxy-ethyl)-1H-pyrazol-4-yl]-2-methyl-8-morpholin-4-yl-6-(3,3,3-trifluoro-propyl)-imidazo[1,2-a]pyrazine] |
| 85.1 nM | CCc1ccc(-c2c(C3CC3)nc3c(N4CCOCC4)nccn23)cn1 [compound 66] |
| 123 nM | Cc1nc2c(N3CCOCC3)nccn2c1-c1cnn(CCCF)c1 [compound 86] |
| 776 nM | Cc1nc2c(N3CCOCC3)nccn2c1-c1ccc(-c2ccc(F)cc2)nc1 [compound 139] |
| 479 nM | COc1ncc(-c2c(C)nc3c(N4CCOCC4)nccn23)cn1 [compound 32, 3-(2-Methoxy-pyrimidin-5-yl)-2-methyl-8-morpholin-4-yl-imidazo[1,2-a]pyrazine] |
| 490 nM | COCCn1cc(-c2c(C)nc3c(N4CCOCC4)nc(C4CC4)cn23)cn1 [compound 37, 6-Cyclopropyl-3-[1-(2-methoxy-ethyl)-1H-pyrazol-4-yl]-2-methyl-8-morpholin-4-yl-imidazo[1,2-a]pyrazine] |
| 550 nM | Cc1cc(-c2c(C)nc3c(N4CCOCC4)nccn23)ccn1 [compound 133] |
| 74.1 nM | COC(Cn1cc(-c2c(C)nc3c(N4CCOCC4)nccn23)cn1)C(C)C (single isomer, unassigned) [compound 59] |
| 457 nM | Cc1nc2c(N3CCOCC3)nccn2c1-c1cnn(CCOC(C)C)c1 [compound 127] |
| 457 nM | Cc1nc2c(-c3ccncc3)nccn2c1-c1cnn(CCN2CCOCC2)c1 [compound 126] |

The remaining lines, values behind:

| SMILES | IC50 |
| --- | --- |
| Cc1nc2c(N3CCOCC3)nccn2c1-c1cnn(C2CCOC2)c1 (single isomer, unassigned) [compound 109] | 178 nM |
| COC(C)(C)COc1ccc(-c2c(C)nc3c(-c4ccncc4)nccn23)cn1 [compound 2, 3-[6-(2-Methoxy-2-methyl-propoxy)-pyridin-3-yl]-2-methyl-8-pyridin-4-yl-imidazo[1,2-a]pyrazine] | 708 nM |
| Cc1nc2c(N3CCOCC3)nccn2c1-c1cnn(CC2CC2(F)F)c1 (single isomer, unassigned) [compound 64] | 83.2 nM |
| Cc1nc2c(-c3ccncc3)nccn2c1-c1cnn(CC2CCCCO2)c1 (single isomer, unassigned) [compound 80] | 112 nM |
| Cc1nc2c(-c3ccncc3)nccn2c1-c1cnn(CC2CCCCO2)c1 (single isomer, unassigned) [compound 92] | 135 nM |
| COCCOc1ccc(-c2c(C)nc3c(-c4ccncc4)nccn23)cn1 [compound 132] | 537 nM |
| Cc1nc2c(N3CCOCC3)nccn2c1-c1cnn(CC2CC2(F)F)c1 (single isomer, unassigned) [compound 47] | 28.2 nM |
| CCOCCn1cc(-c2c(C)nc3c(-c4ccncc4)nccn23)cn1 [compound 128] | 468 nM |
| Cc1nc2c(-c3ccncc3)nccn2c1-c1ccc(OCC(F)(F)F)nc1 [compound 129] | 501 nM |
| Cc1nc2c(N3CCOCC3)nccn2c1-c1cnn(C2CCOC2)c1 (single isomer, unassigned) [compound 88] | 132 nM |
| COC(C)(C)Cc1ccc(-c2c(C3CC3)nc3c(N4CCOCC4)nccn23)cn1 [compound 60] | 75.9 nM |
| Cc1nc2c(N3CCOCC3)nccn2c1-c1cnn(CC2CCCCO2)c1 (centres unmarked) [compound 73] | 95.5 nM |

What follows are compounds tested on apomorphine-induced stereotypy (assay: Apomorphine-induced stereotypy in rats (APO)). Conditions: Rattus norvegicus, read-out: APO ED50.
Type: in vivo
Protocol: Apomorphine-Induced Stereotypy in Rats (APO)
Apomorphine (1.0 mg/kg, i.v.)-induced stereotypy (compulsive sniffing, licking, chewing) was scored every 5 min. over the first hour after injection of apomorphine, following a 1 hour interval pre-treatment with the test compound. The score system was: (3) pronounced, (2) moderate, (1) slight, and (O) absent.

| SMILES | ED50 |
| --- | --- |
| CCOCCc1ccc(-c2c(C)nc3c(N4CCOCC4)nccn23)cn1 [compound 20, 3-[6-(2-Ethoxy-ethyl)-pyridin-3-yl]-2-methyl-8-morpholin-4-yl-imidazo[1,2-a]pyrazine] | 1.2 mg/kg |
| Cc1nc2c(N3CCOCC3)nccn2c1-c1coc(CC(C)C)n1 [compound 41, 3-(2-Isobutyl-oxazol-4-yl)-2-methyl-8-morpholin-4-yl-imidazo[1,2-a]pyrazine] | 5 mg/kg |
| Cc1nc2c(N3CCOCC3)nccn2c1-c1ccc(C(C)C)nc1 [compound 107] | 5 mg/kg |
| CCc1nc2c(N3CCOCC3)nccn2c1-c1cnn(CCOC)c1 [compound 100] | 5 mg/kg |
| COCCCc1ccc(-c2c(C)nc3c(N4CCOCC4)nccn23)cn1 [compound 6, 3-[6-(3-Methoxy-propyl)-pyridin-3-yl]-2-methyl-8-morpholin-4-yl-imidazo[1,2-a]pyrazine] | ≤ 2.5 mg/kg |
| COCCc1ccc(-c2c(C3CC3)nc3c(N4CCOCC4)nccn23)cn1 [compound 10, 2-Cyclopropyl-3-[6-(2-methoxy-ethyl)-pyridin-3-yl]-8-morpholin-4-yl-imidazo[1,2-a]pyrazine] | 1.2 mg/kg |
| COCCn1cc(-c2c(C)nc3c(N4CCOCC4)nccn23)cn1 [compound 35, 2-Methyl-3-[1-(2-methoxy-ethyl)-1H-pyrazol-4-yl]-8-morpholin-4-yl-imidazo[1,2-a]pyrazine] | 5 mg/kg |

Same assay, conditions: Rattus norvegicus; not active at 2.5 or at 10 mg/kg, not further tested; read-out: APO ED50 (not active at threshold dose)

| SMILES | ED50 |
| --- | --- |
| Cc1nc2c(N3CCOCC3)nccn2c1-c1ccc(N2CCNCC2)nc1 [compound 23, 2-Methyl-8-morpholin-4-yl-3-(6-piperazin-1-yl-pyridin-3-yl)-imidazo[1,2-a]pyrazine] | > 2.5 mg/kg |
| COCCc1ccc(-c2c(C)nc3c(N4CCCC4)nccn23)cn1 [compound 124] | > 2.5 mg/kg |
| COCCc1ccc(-c2c(C)nc3c(N4CCOCC4)nccn23)nc1 [compound 31, 3-[5-(2-Methoxy-ethyl)-pyridin-2-yl]-2-methyl-8-morpholin-4-yl-imidazo[1,2-a]pyrazine] | > 2.5 mg/kg |
| Cc1nc2c(N3CCOCC3)nccn2c1-c1ccc(CC(C)C)nc1 [compound 106] | > 2.5 mg/kg |
| COCCc1cc(-c2c(C)nc3c(N4CCOCC4)nccn23)ccn1 [compound 19, 3-[2-(2-Methoxy-ethyl)-pyridin-4-yl]-2-methyl-8-morpholin-4-yl-imidazo[1,2-a]pyrazine] | > 2.5 mg/kg |
| CCc1ccc(-c2c(C)nc3c(N4CCOCC4)nccn23)cn1 [compound 26, 3-(6-Ethyl-pyridin-3-yl)-2-methyl-8-morpholin-4-yl-imidazo[1,2-a]pyrazine] | > 2.5 mg/kg |
| CO[C@H]1CCN(c2ccc(-c3c(C)nc4c(N5CCOCC5)nccn34)cn2)C1 [compound 24, (S)-3-[6-(3-Methoxy-pyrrolidin-1-yl)-pyridin-3-yl]-2-methyl-8-morpholin-4-yl-imidazo[1,2-a]pyrazine] | > 2.5 mg/kg |
| Cc1nc2c(N3CCOCC3)nccn2c1-c1ccc(CCO)nc1 [compound 18, 2-[5-(2-Methyl-8-morpholin-4-yl-imidazo[1,2-a]pyrazin-3-yl)-pyridin-2-yl]-ethanol] | > 2.5 mg/kg |

— patent publication US8859543B2, “Imidazo[1,2-a]pyrazine derivatives and their use for the prevention or treatment of neurological, psychiatric and metabolic disorders and diseases” (Janssen Pharmaceutica NV, priority 2010, dated 2014)
